In patent US20240180900A1, “COMPOUNDS AND METHODS FOR THE TARGETED DEGRADATION OF ANDROGEN RECEPTOR” (Arvinas Operations, Inc., priority 2022, published 2024):

What was measured:
[1] = test system: VCaP cells; assay: VCaP cell proliferation in a high androgen environment (R1881); type: cell-based, human; settings: Compound A 300 nM vs enzalutamide 1,000 nM, R1881 0.01 to 1 nM, 5 days
Protocol: Cell proliferation was determined using the CellTiter Glo® assay.

[2] = target: T1, AR (Homo sapiens, UniProt P10275); assay: AR degradation in castrated mice bearing VCaP xenografts (western blotting); type: in vivo, mouse; set-up: from tissue; host or cells: VCaP xenograft tumour tissue from castrated CB17/SCID mice
T1 sequence (P10275 1-920): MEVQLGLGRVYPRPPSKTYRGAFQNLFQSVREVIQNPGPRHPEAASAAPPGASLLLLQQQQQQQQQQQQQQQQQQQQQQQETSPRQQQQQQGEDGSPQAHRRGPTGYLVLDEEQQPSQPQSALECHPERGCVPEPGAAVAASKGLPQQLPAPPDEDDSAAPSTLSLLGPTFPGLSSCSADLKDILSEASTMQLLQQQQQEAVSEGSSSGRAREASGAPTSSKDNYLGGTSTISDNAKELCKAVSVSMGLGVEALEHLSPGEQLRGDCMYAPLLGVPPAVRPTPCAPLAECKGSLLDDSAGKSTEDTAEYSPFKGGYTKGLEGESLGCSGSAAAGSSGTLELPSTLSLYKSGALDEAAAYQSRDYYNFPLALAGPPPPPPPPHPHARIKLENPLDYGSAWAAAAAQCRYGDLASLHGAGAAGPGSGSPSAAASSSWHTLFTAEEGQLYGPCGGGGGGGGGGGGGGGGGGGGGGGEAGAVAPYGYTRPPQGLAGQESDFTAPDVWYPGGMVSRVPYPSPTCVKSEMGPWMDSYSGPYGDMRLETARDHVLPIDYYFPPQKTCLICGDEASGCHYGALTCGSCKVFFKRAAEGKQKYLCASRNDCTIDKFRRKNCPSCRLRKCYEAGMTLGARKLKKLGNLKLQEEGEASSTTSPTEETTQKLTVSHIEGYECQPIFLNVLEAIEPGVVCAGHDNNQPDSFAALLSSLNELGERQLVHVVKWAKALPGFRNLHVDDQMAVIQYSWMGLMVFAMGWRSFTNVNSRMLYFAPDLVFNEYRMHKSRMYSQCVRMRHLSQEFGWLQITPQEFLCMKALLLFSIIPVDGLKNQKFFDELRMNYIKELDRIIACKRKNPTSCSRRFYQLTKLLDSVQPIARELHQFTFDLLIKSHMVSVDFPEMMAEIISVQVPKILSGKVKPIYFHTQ
Protocol: Tumors were harvested 16 hours post-dose and tumor AR level was established by western blotting. Antibody recognizing human mitochondria specific antibody (Mito.C) was employed as a loading control. The quantitation of AR levels from the western blot is shown (lower panel).
Castration eliminates testosterone produced by the testes. Upon castration, prostate tumor cells implanted in the mouse start to produce testosterone on their own, enabling their growth. The effect of Compound A on AR degradation in vivo was evaluated in castrated mice bearing VCaP xenografts. To recapitulate human CRPC, when the implanted tumors reached a volume of approximately 100 mm^3, the mice were surgically castrated. Three weeks after castration, mice were administered a single PO dose of Compound A at 10, 3, 1, 0.3, 0.1, 0.03, or 0 (vehicle) mg/kg via gavage. Sixteen hours after treatment, the tumor tissues were collected, and lysates were prepared to assess AR expression by western blotting. At Compound A doses of 10, 3, 1, 0.3, 0.1, and 0.03 mg/kg, AR was reduced on average by 96%, 91%, 81%, 73%, -5%, and 14%, respectively (FIG. 11), compared to vehicle control.

COc1cc(O[C@H]2C(C)(C)[C@H](NC(=O)c3ccc(N4CCC(CN5CCN(c6ccc(C(=O)N[C@H]7CCC(=O)NC7=O)c(F)c6)CC5)CC4)cc3)C2(C)C)ccc1C#N [Compound A, 4-(4-((1-(4-(((1R,3R)-3-(4-cyano-3-methoxyphenoxy)-2,2,4,4-tetramethylcyclobutyl)carbamoyl)phenyl)piperidin-4-yl)methyl)piperazin-1-yl)-N—((S)-2,6-dioxopiperidin-3-yl)-2-fluorobenzamide]
antiproliferative effects vs enzalutamide [1]: more potent antiproliferative effects than enzalutamide | AR reduced on average vs vehicle control ([2]; single PO dose 0.03 mg/kg, 16 hours): 14% | AR reduced on average vs vehicle control ([2]; single PO dose 0.1 mg/kg, 16 hours): -5% | AR reduced on average vs vehicle control ([2]; single PO dose 0.3 mg/kg, 16 hours): 73% | AR reduced on average vs vehicle control ([2]; single PO dose 1 mg/kg, 16 hours): 81% | AR reduced on average vs vehicle control ([2]; single PO dose 3 mg/kg, 16 hours): 91% | AR reduced on average vs vehicle control ([2]; single PO dose 10 mg/kg, tumors 16 hours post-dose): 96%
